Results as given in PubChem BioAssay (NCI).
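Interpolation was linear, between the two tested concentrations surrounding the appropriate level; five concentrations were tested over 48 hours in 96-well plates. TGI denotes the concentration required for complete inhibition of growth.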

Key:
Experiment in all cases: NCI tumour cell line growth inhibition, 48 h
[1] = system: 786-0 renal
[2] = system: A498 renal
[3] = system: A549 NSCLC
[4] = system: ACHN renal
[5] = system: CAKI-1 renal
[6] = system: CCRF-CEM leukemia
[7] = system: COLO 205 colon
[8] = system: DLD-1 colon
[9] = system: DMS 114 small cell lung
[10] = system: DMS 273 small cell lung
[11] = system: EKVX NSCLC
[12] = system: HCC-2998 colon
[13] = system: HCT-116 colon
[14] = system: HCT-15 colon
[15] = system: HL-60(TB) leukemia
[16] = system: HOP-62 NSCLC
[17] = system: HOP-92 NSCLC
[18] = system: HT29 colon
[19] = system: IGROV1 ovarian
[20] = system: K-562 leukemia
[21] = system: KM12 colon
[22] = system: KM20L2 colon
[23] = system: LXFL 529 NSCLC
[24] = system: M14 melanoma
[25] = system: M19-MEL melanoma
[26] = system: MALME-3M melanoma
[27] = system: MOLT-4 leukemia
[28] = system: NCI-H226 lung
[29] = system: NCI-H23 lung
[30] = system: NCI-H460 lung
[31] = system: NCI-H522 lung
[32] = system: OVCAR-3 ovarian
[33] = system: OVCAR-4 ovarian
[34] = system: OVCAR-5 ovarian
[35] = system: OVCAR-8 ovarian
[36] = system: RPMI-8226 leukemia
[37] = system: RXF 393 renal
[38] = system: RXF-631 renal
[39] = system: SF-268 CNS
[40] = system: SF-295 CNS
[41] = system: SF-539 CNS
[42] = system: SK-MEL-2 melanoma
[43] = system: SK-MEL-28 melanoma
[44] = system: SK-MEL-5 melanoma
[45] = system: SK-OV-3 ovarian
[46] = system: SN12C renal
[47] = system: SNB-19 CNS
[48] = system: SNB-75 CNS
[49] = system: SNB-78 CNS
[50] = system: SR leukemia
[51] = system: SW-620 colon
[52] = system: U251 CNS
[53] = system: UACC-257 melanoma
[54] = system: UACC-62 melanoma
[55] = system: UO-31 renal
[56] = system: XF 498 CNS

## COc1ccc(C(=O)C(C(=O)CC(=O)Nc2cccc(C(F)(F)F)c2)c2ccc(OC)cc2)cc1 (stereo unspecified)
[1]
  TGI: > 100 µM
[2]
  TGI: > 100 µM
[3]
  TGI: > 100 µM
[4]
  TGI: > 100 µM
[5]
  TGI: > 100 µM
[6]
  TGI: > 100 µM
[7]
  TGI: > 100 µM
[8]
  TGI: > 100 µM
[9]
  TGI: > 100 µM
[10]
  TGI: > 100 µM
[11]
  TGI: > 100 µM
[12]
  TGI: > 100 µM
[13]
  TGI: > 100 µM
[14]
  TGI: > 100 µM
[15]
  TGI: > 100 µM
[16]
  TGI: > 100 µM
[17]
  TGI: > 100 µM
[18]
  TGI: > 100 µM
[19]
  TGI: > 100 µM
[20]
  TGI: > 100 µM
[21]
  TGI: > 100 µM
[22]
  TGI: > 100 µM
[23]
  TGI: > 100 µM
[24]
  TGI: > 100 µM
[25]
  TGI: > 100 µM
[26]
  TGI: > 100 µM
[27]
  TGI: > 100 µM
[28]
  TGI: > 100 µM
[29]
  TGI: > 100 µM
[30]
  TGI: > 100 µM
[31]
  TGI: > 100 µM
[32]
  TGI: > 100 µM
[33]
  TGI: > 100 µM
[34]
  TGI: > 100 µM
[35]
  TGI: > 100 µM
[36]
  TGI: > 100 µM
[37]
  TGI: > 100 µM
[38]
  TGI: > 100 µM
[39]
  TGI: > 100 µM
[40]
  TGI: > 100 µM
[41]
  TGI: > 100 µM
[42]
  TGI: > 100 µM
[43]
  TGI: > 100 µM
[44]
  TGI: > 100 µM
[45]
  TGI: > 100 µM
[46]
  TGI: > 100 µM
[47]
  TGI: > 100 µM
[48]
  TGI: 85.5 µM
[49]
  TGI: > 100 µM
[50]
  TGI: > 100 µM
[51]
  TGI: > 100 µM
[52]
  TGI: > 100 µM
[53]
  TGI: > 100 µM
[54]
  TGI: > 100 µM
[55]
  TGI: > 100 µM
[56]
  TGI: > 100 µM
